Measurements taken from ChEMBL document CHEMBL1201862, “PubChem BioAssay data set” (2004).
Calls of active or inactive are those of the source.

Tests used:
Caspase-6 = Caspase-6 (Homo sapiens, UniProt P55212); test: inhibition of CASP6 peptide cleavage – biochemical, VEID-R110 fluorescence, cherry-pick, dose response (AID 720632)
[1] = Late stage assay provider results from the probe development effort to identify inhibitors of the Plasmodium falciparum M18 Aspartyl Aminopeptidase (M18AAP): radiolabel-based cell-based dose response assay to identify compounds that inhibit P. falciparum growth in RBCs, Set 2..; format: functional
[2] = target: G-protein coupled receptor 183 (Homo sapiens, UniProt P32249); test: SAR confirmation of small molecule antagonists of the EBI2 receptor via a luminescent beta-arrestin assa.; format: functional
G-protein coupled receptor 183, sequence (P32249 whole entry): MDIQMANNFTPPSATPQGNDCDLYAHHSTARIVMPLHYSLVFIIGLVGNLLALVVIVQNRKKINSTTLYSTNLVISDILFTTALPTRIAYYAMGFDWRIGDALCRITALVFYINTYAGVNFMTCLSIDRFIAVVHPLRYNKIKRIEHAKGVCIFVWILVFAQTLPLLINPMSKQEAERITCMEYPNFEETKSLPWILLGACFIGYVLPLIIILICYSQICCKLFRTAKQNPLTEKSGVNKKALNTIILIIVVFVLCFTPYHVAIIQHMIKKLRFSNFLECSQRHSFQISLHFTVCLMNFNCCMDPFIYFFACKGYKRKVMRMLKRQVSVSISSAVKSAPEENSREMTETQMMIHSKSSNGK

INS1 = test: INS-1E survival protection against cytokine death – cell-based, luminescence, retest, dose response (AID 449756); format: functional; conditions: Rattus norvegicus;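 also: cell death triggered by IL-1 beta plus TNF-alpha plus IFN-gamma mixture; protective hits raise ATP signal compared with cytokine alone wells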
[3] = target: COUP transcription factor 2 (Homo sapiens, UniProt P24468); test: Luminescence-based cell-based high throughput dose response assay to identify inhibitors of COUP-TFII (NR2F2).; format: functional;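 also: HEK293 cells transiently cotransfected with COUP-TFII expression vector and reporter; luciferase reporter luminescence driven by COUP-TFII from the pX2-168 reporter plasmid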
COUP transcription factor 2, sequence (P24468 whole entry): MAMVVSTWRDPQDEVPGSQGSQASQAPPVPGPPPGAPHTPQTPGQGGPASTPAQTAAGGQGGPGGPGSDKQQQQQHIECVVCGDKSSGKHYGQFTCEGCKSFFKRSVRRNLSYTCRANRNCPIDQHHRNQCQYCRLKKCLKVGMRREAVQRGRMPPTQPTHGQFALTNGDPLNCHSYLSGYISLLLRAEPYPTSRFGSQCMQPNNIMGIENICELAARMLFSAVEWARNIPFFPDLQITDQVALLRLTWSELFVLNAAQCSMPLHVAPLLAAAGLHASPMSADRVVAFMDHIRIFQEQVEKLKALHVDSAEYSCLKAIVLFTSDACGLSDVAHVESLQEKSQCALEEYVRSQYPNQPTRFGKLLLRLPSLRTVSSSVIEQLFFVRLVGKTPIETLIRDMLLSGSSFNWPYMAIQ

[4] = toxicity to human HepG2 hepatoma cells – cell-based, plate reader, dry powder samples, cytotoxicity control, dose response (AID 1159569); format: functional;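 also: inhibitor potency with signal falling toward the positive control level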
[5] = P. falciparum Dd2 growth inhibitors, dose response, SYBR Green, cherry-picked samples (AID 1159567); format: functional, cell-based
[6] = Dd2 malaria parasite growth inhibition potency – SYBR Green, dry powder samples, dose response (AID 1159566); format: functional, cell-based;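 also: potency for growth inhibition with lower SYBR green DNA signal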
[7] = growth inhibition of PfATP4-mutant resistant parasites – NITD609-resistant line, SYBR Green, dry powder, dose response (AID 1159571); format: functional, cell-based;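 also: parasites synchronized at ring stage by sorbitol before testing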
[8] = growth inhibition of yeast DHODH-expressing 3D7 parasites – SYBR Green, dry powder samples, dose response (AID 1159570); format: functional, cell-based;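 also: parasite growth measured after 72 hours of compound exposure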
[9] = viability loss in Vero cells – cytotoxicity control for Vif-APOBEC3G degradation inhibitor project, dose response (AID 1117358); format: functional; conditions: Vero

Caspase-6, sequence (P55212 24-179 limits assumed): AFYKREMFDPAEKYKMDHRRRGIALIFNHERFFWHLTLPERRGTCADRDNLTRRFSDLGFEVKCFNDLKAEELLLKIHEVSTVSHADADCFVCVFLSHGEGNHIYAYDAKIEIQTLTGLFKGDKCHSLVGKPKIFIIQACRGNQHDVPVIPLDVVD
Caspase-6, sequence (P55212 194-293 limits assumed): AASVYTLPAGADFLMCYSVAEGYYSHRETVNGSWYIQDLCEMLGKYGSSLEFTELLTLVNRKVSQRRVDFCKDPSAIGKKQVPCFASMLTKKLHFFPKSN

Cc1ccc(Sc2ccc(S(=O)(=O)Nc3ccc(CC(=O)O)cc3)cc2)cc1C
AC50 (Caspase-6): 49300 nM (active)

COc1cccc(CCNc2c3ccccc3nc3ccccc23)c1
IC50 [1]: 600 nM (active)

O=C(CCCc1ccc(Br)cc1)N1CCN(C(=O)c2ccc(Cl)cc2)CC1
IC50 [2]: > 1000 nM (inactive)

O=C(NCC(c1ccco1)N1CCCC1)c1ccc(Cl)c(S(=O)(=O)N2CCc3ccccc32)c1 (configuration not stated)
AC50 (INS1): 3560 nM (active)
IC50 [3]: 7010 nM (active)

O=C(/C=C/c1ccc(Br)cc1)N1CCN(Cc2ccccc2F)CC1
IC50 [2]: 28.7 nM (active)

OC[C@@H]1[C@@H](c2ccccc2)C2(CN(CC3CC3)C2)N1Cc1ccc(F)cc1
AC50 [4]: 43600 nM (active)
AC50 [5]: 919 nM (active)
AC50 [6]: 1090 nM (active)
AC50 [7]: 1520 nM (active)
AC50 [8]: 1980 nM (active)

S=C(Nc1ccc(Oc2ccccc2)cc1)NC1CCCCC1
CC50 [9]: 30100 nM (active)
